Source: paper PMC5923425, “Structural analysis of human ARS2 as a platform for co-transcriptional RNA sorting” (Nature Communications, 2018)

Assays:
[1] = molecular target: T1, NCBP3 (full-length, residues 1–620) (Homo sapiens, UniProt Q53F19); experiment: isothermal titration calorimetry; type: binding
T1 construct: full-length residues 1-620, pFASTBac HTb, expressed in High Five insect cells, N-terminal His6 tag cleaved with TEV
T1 sequence (Q53F19 1-620): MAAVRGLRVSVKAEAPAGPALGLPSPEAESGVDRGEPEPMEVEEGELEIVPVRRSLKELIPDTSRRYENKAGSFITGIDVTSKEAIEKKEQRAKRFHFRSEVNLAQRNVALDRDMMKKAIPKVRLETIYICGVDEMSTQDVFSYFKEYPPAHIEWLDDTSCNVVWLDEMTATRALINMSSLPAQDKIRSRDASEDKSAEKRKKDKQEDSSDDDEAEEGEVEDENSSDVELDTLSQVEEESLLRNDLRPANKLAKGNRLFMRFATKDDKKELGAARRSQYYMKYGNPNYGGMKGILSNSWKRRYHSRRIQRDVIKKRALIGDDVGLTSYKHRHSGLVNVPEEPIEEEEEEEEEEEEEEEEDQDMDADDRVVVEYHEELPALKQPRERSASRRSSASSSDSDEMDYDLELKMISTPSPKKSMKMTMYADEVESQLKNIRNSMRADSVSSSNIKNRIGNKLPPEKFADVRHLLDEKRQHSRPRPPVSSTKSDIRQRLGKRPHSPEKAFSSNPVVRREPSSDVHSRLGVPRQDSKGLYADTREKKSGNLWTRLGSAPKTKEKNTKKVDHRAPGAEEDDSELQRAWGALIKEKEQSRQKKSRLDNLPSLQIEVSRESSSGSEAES
Excerpt: isothermal titration calorimetry on NCBP3 (full-length, residues 1–620)

[2] = molecular target: T2, CBP20 (Homo sapiens, UniProt P52298); experiment: isothermal titration calorimetry; type: binding; details: 250 mM NaCl, 20 mM HEPES, 2 mM TCEP, pH 7.8, 25 °C; CBP20 without CBP80
T2 construct: gene NCBP2; CBP20 alone, recombinant, purified as described previously
T2 sequence (P52298 2-156): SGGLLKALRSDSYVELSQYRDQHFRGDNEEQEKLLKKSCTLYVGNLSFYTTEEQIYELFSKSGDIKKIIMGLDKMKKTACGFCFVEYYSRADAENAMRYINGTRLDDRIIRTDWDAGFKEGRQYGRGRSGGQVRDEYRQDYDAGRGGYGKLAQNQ
Excerpt: isothermal titration calorimetry on CBP20

[3] = molecular target: T3, NCBP3/2xCBP80 (Homo sapiens, UniProt Q53F19); experiment: isothermal titration calorimetry; type: binding
T3 construct: full-length NCBP3 (insect cells, tag cleaved) with CBP80 added (2x, apparently molar excess)
T3 sequence (Q53F19 1-620): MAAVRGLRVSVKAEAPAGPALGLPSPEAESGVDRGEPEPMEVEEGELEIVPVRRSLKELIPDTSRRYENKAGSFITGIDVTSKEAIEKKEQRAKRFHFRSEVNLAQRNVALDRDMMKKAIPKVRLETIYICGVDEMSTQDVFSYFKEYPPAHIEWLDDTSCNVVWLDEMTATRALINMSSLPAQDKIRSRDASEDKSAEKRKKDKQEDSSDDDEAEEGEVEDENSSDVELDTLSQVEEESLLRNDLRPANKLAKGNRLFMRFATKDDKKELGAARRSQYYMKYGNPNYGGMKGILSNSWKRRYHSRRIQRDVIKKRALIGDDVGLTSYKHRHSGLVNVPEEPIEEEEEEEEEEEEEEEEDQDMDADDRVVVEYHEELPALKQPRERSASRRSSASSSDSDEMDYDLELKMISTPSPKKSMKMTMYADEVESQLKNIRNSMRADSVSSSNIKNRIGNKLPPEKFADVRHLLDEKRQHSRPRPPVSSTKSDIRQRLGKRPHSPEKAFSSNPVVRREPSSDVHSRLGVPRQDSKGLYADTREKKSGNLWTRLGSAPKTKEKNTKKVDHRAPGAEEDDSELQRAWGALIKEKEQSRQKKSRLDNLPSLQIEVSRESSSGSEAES
T3 sequence (Q09161 20-790 partner limits assumed): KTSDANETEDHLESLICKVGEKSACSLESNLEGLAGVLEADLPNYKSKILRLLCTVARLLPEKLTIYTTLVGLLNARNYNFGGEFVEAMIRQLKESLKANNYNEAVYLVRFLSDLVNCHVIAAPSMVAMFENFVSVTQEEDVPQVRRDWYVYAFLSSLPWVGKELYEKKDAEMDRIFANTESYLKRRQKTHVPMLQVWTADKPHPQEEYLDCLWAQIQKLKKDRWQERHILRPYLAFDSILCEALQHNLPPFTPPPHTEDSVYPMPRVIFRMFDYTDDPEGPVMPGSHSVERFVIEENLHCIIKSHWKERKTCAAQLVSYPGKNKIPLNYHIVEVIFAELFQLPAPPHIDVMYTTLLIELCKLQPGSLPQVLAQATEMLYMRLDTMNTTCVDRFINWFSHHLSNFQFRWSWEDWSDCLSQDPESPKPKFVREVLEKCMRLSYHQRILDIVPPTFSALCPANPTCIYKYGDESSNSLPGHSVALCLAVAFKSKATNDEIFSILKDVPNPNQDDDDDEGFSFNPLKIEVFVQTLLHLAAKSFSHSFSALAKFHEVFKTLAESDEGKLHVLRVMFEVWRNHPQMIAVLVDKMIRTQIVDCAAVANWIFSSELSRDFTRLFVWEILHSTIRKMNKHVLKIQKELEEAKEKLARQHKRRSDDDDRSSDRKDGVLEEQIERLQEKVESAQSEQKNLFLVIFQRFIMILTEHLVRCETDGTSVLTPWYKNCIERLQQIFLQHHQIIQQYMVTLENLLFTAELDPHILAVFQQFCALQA
Excerpt: isothermal titration calorimetry on NCBP3/2xCBP80

[4] = molecular target: T4, NCBP3 1–282 (Homo sapiens, UniProt Q53F19); experiment: isothermal titration calorimetry; type: binding
T4 construct: N-terminal region with putative RRM domain, residues 1-282, pETM11, E. coli Rosetta 2, His6 tag cleaved with TEV
T4 sequence (Q53F19 1-282): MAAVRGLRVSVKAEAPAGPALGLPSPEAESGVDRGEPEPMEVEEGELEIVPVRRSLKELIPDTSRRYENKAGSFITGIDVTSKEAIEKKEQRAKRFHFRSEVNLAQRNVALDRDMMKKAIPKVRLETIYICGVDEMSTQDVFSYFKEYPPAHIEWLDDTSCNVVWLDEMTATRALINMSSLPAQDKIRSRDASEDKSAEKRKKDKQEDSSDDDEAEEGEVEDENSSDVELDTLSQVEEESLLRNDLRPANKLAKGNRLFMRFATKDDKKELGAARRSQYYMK
Excerpt: isothermal titration calorimetry on NCBP3 1–282

[5] = molecular target: T5, CBP20/2xCBP80 (CBC) (Homo sapiens, UniProt P52298); experiment: isothermal titration calorimetry; type: binding; details: 250 mM NaCl, 20 mM HEPES, 2 mM TCEP, pH 7.8, 25 °C; CBP80 present (2x)
T5 construct: gene NCBP2; CBP20-CBP80 heterodimer, CBP80 added 2x (apparently molar excess)
T5 sequence (P52298 2-156): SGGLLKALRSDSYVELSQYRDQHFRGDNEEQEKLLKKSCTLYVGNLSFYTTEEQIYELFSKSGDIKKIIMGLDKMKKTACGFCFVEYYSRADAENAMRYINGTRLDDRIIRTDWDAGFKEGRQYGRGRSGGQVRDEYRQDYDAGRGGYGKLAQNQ
T5 sequence (Q09161 20-790 partner limits assumed): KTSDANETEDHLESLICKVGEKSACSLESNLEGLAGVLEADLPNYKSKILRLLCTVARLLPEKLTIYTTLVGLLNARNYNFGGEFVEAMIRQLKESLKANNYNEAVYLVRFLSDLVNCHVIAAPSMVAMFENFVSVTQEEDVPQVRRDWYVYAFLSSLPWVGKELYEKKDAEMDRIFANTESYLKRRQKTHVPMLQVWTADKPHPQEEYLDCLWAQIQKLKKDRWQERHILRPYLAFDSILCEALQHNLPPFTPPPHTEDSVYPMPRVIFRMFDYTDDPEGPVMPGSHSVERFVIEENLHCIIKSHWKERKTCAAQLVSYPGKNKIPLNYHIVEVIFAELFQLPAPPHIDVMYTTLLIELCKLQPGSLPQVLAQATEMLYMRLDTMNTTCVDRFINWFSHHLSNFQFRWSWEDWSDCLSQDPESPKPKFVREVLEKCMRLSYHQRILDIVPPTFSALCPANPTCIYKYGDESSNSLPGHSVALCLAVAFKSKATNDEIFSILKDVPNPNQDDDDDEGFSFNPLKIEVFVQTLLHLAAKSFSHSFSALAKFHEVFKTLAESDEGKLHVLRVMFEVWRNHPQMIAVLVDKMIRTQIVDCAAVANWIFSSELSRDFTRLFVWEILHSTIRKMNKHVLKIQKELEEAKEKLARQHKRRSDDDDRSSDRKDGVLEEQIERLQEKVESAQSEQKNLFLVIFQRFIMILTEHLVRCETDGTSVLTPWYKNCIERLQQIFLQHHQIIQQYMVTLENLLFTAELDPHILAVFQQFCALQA
Excerpt: isothermal titration calorimetry on CBP20/2xCBP80 (CBC)

[6] = molecular target: T6, ARS2^147–871 (human, UniProt Q9BXP5-4 147-871); experiment: pull-down; GST–FLASH 903–943 (or GST as control) immobilised on glutathione sepharose, incubated with purified ARS2 constructs 30 min at 10 °C; flow-through, wash and elution on Coomassie-stained SDS-PAGE; details: both partners purified
T6 construct: human ARS2 (SRRT) isoform-e, 871 residues, residues 147-871, cloned into pETM11; also called hARS2; SRRT; source: E. coli Rosetta 2, purified (Ni-Sepharose, TEV cleavage, HiTrap Q, heparin if necessary, SEC); not shown: His6, N-terminal, cleaved
T6 sequence (looked up): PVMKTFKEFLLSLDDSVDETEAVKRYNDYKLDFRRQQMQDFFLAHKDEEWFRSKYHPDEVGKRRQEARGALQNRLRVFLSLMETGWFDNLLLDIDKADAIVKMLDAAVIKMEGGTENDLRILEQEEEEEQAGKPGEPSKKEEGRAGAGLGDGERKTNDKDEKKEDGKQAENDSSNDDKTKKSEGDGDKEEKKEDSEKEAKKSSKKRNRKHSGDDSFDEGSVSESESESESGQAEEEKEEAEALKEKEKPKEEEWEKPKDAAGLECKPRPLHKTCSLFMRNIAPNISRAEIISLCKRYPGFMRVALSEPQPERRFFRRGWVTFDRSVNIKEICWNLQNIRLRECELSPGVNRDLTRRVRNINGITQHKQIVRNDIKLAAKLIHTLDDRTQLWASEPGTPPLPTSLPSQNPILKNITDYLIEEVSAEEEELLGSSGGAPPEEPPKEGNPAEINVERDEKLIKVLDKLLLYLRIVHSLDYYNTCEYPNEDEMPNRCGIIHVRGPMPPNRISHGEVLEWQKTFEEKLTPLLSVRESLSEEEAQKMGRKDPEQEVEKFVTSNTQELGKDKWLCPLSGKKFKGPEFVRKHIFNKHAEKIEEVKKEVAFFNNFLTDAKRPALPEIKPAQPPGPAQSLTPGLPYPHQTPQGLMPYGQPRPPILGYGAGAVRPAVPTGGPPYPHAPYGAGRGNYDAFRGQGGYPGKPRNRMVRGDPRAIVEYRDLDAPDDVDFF

C[n+]1cn([C@@H]2O[C@H](COP(=O)(O)OP(=O)(O)OP(=O)(O)O)[C@@H](O)[C@H]2O)c2nc(N)[nH]c(=O)c21 [m^7GTP]
Kd [1]: 4.6 ± 1 µM | Kd [2]: 84 ± 4.2 µM | Kd [3]: 7.9 ± 0.9 µM | Kd [4]: 8.3 ± 3 µM | Kd [5]: 0.37 ± 0.04 µM

B1: GST–FLASH^903–943 (domain or fragment, UniProt Q9UKL3 903-943, looked up)
chain: SDLNKENQKPIYKSDKCTEADTCKNSPLDELEEGEIRSDSE
notes: FLASH (FLICE-associated huge protein), residues 903-943, holds FARB; cloned into the GST-vector pETM30; source: E. coli, expressed and purified; immobilised on glutathione sepharose
binding result [6]: binds
